# Molecular target: human BACE1 (Homo sapiens, UniProt P56817)
# Test: Fluorescent kinetic assay: Evaluation of BACE-1 Binding Affinity of Test Compounds
# Type: biochemical
# Settings: 10 nM enzyme, 25 μM substrate WABC-6, 50 mM Na-Acetate pH 4.5, room temperature
# Protocol: Evaluation of BACE-1 Binding Affinity of Test Compounds
# Fluorescent Kinetic Assays
# Final Assay Conditions: 10 nM human BACE1 (or 10 nM Murine BACE1, 1.5 nM human BACE2), 25 μM substrate (WABC-6, MW 1549.6, from AnaSpec), Buffer: 50 mM Na-Acetate, pH 4.5, 0.05% CHAPS, 25% PBS, room temperature. Na-Acetate was from Aldrich, Cat.# 24, 124-5, CHAPS was from Research Organics, Cat. # 1304C 1×, PBS was from Mediatech (Cellgro), Cat# 21-031-CV, peptide substrate Abz[…]pa was from AnaSpec, Peptide Name: WABC-6 Determination of stock substrate (Abz[…]pa) concentration: ˜25 mM stock solution is made in DMSO using the peptide weight and MW, and diluted to ˜25 μM (1:1000) in 1×PBS. Concentration is determined by absorbance at 354 nm using an extinction coefficient ε of 18172 M^−1 cm^−1, the concentration of stock substrate is corrected, and the substrate stock stored in small aliquots in −80° C. [Substrate Stock]=ABS^354 nm*10^6/18172 (in […]) The extinction coefficient ε^354 nm was adapted from TACE peptide substrate, which had the same quencher-fluorophore pair.
# Determination of Stock Enzyme Concentration: the stock concentration of each enzyme is determined by absorbance at 280 nm using an ε of 64150 M^−1 cm^−1 for hBACE1 and MuBACE1, 62870 M^−1 cm^−1 for hBACE2 in 6 M Guanidinium Hydrochloride (from Research Organics, Cat. # 5134G-2), pH ˜6. The extinction coefficient ε^280 nm for each enzyme was calculated based on known amino acid composition and published extinction coefficients for Trp ([…]) and Tyr ([…]) residues (Anal. Biochem. 182, 319-326).
# Dilution and mixing steps: total reaction volume: 100 μL
# 2× inhibitor dilutions in buffer A(66.7 mM Na-Acetate, pH 4.5, 0.0667% CHAPS) were prepared,
# 4× enzyme dilution in buffer A(66.7 mM Na-Acetate, pH 4.5, 0.0667% CHAPS) were prepared,
# 100 μM substrate dilution in 1×PBS was prepared, and
# 50 μL 2× Inhibitor, 25 μL 100 μM substrate are added to each well of 96-well plate (from DYNEX Technologies, VWR #: 11311-046), immediately followed by 25 μL 4× enzyme (added to the inhibitor and substrate mix), and the fluorescence readings are initiated.
# Fluorescence Readings: Readings at λex 320 nm and λem 420 nm are taken every 40 sec for 30 min at room temperature and the linear slope for substrate cleavage rate (vi) determined.
# Testing at least 10 different inhibitor concentrations is preferred.
# Chain of human BACE1 (P56817 46-501): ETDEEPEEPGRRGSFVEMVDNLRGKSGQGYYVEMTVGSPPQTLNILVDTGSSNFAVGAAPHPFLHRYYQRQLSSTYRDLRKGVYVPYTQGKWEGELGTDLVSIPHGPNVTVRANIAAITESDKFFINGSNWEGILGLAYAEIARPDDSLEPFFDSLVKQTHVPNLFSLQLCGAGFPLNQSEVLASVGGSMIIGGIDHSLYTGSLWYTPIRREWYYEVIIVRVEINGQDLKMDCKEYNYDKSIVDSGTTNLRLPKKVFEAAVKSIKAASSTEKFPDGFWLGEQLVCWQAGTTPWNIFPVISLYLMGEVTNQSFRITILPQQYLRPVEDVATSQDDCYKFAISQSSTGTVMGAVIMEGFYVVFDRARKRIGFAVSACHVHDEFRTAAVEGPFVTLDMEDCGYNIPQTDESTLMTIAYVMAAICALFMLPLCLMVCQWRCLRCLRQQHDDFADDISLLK
row,IC50 [nM],SMILES
1,10 to 100,CCC(=O)c1cc([C@]2(c3cccc(-c4cccnc4F)c3)N=C(N)N(C)C2=O)cn1CCCCF [250 A]
2,> 1000,CCC(=O)c1cc([C@@]2(c3cccc(-c4cccnc4F)c3)N=C(N)N(C)C2=O)cn1CCCCF [250 B]
3,10 to 100,CCC(=O)c1cc([C@]2(c3cccc(-c4cccnc4F)c3)N=C(N)N(C)C2=O)cn1CCCC(F)(F)F [252 A]
4,> 1000,CCC(=O)c1cc([C@@]2(c3cccc(-c4cccnc4F)c3)N=C(N)N(C)C2=O)cn1CCCC(F)(F)F [252 B]
5,10 to 100,CCC(=O)c1cc([C@]2(c3cccc(-c4cccnc4F)c3)N=C(N)N(C)C2=O)cn1CC(F)F [253 A]
6,> 1000,CCC(=O)c1cc([C@@]2(c3cccc(-c4cccnc4F)c3)N=C(N)N(C)C2=O)cn1CC(F)F [253 B]
7,10 to 100,CCCn1cc([C@]2(c3cccc(-c4cccnc4F)c3)N=C(N)N(C)C2=O)cc1C(=O)CC [254 A]
8,> 1000,CCCn1cc([C@@]2(c3cccc(-c4cccnc4F)c3)N=C(N)N(C)C2=O)cc1C(=O)CC [254 B]
9,10 to 100,CCC(=O)c1cc([C@]2(c3cccc(-c4cccnc4F)c3)N=C(N)N(C)C2=O)cn1CCCF [255 A]
10,> 1000,CCC(=O)c1cc([C@@]2(c3cccc(-c4cccnc4F)c3)N=C(N)N(C)C2=O)cn1CCCF [255 B]
11,10 to 100,CCC(=O)c1cc([C@]2(c3cccc(-c4cccnc4F)c3)N=C(N)N(C)C2=O)cn1CCF [256 A]
12,> 1000,CCC(=O)c1cc([C@@]2(c3cccc(-c4cccnc4F)c3)N=C(N)N(C)C2=O)cn1CCF [256 B]
13,10 to 100,COC(=O)c1cc([C@]2(c3cccc(-c4cccnc4F)c3)N=C(N)N(C)C2=O)cn1CCF [257 A]
14,110 to 1000,COC(=O)c1cc([C@@]2(c3cccc(-c4cccnc4F)c3)N=C(N)N(C)C2=O)cn1CCF [257 B]
15,10 to 100,CCC(=O)c1cc(C2(c3cccc(-c4cccnc4F)c3)N=C(N)N(C)C2=O)cn1CCC(C)C (stereo not drawn) [Example 153]

# The remaining lines, values behind:
row,SMILES,IC50 [nM]
1,CCC(=O)c1cc([C@]2(c3cccc(-c4cc(F)cnc4F)c3)N=C(N)N(C)C2=O)cn1CCF [242 A],10 to 100
2,CCC(=O)c1cc([C@@]2(c3cccc(-c4cc(F)cnc4F)c3)N=C(N)N(C)C2=O)cn1CCF [242 B],> 1000
3,CCn1cc([C@]2(c3cccc(-c4cccnc4F)c3)N=C(N)N(C)C2=O)cc1C(=O)C1CC1 [243 A],10 to 100
4,CCn1cc([C@@]2(c3cccc(-c4cccnc4F)c3)N=C(N)N(C)C2=O)cc1C(=O)C1CC1 [243 B],> 1000
5,CCC(=O)c1cc([C@]2(c3cccc(-c4cccnc4F)c3)N=C(N)N(C)C2=O)cs1 [244 A],10 to 100
6,CCC(=O)c1cc([C@@]2(c3cccc(-c4cccnc4F)c3)N=C(N)N(C)C2=O)cs1 [244 B],110 to 1000
7,CC(=O)c1cc([C@]2(c3ccccc3)N=C(N)N(C)C2=O)cn1C [249 A],> 1000
8,CC(=O)c1cc([C@@]2(c3ccccc3)N=C(N)N(C)C2=O)cn1C [249 B],> 1000
9,CCC(=O)c1cc([C@]2(c3cccc(-c4cccnc4F)c3)N=C(N)N(C)C2=O)cn1CC1CC1 [251 A],10 to 100
10,CCC(=O)c1cc([C@@]2(c3cccc(-c4cccnc4F)c3)N=C(N)N(C)C2=O)cn1CC1CC1 [251 B],> 1000
11,COC(=O)c1cc([C@]2(c3ccc(F)c(-c4cncnc4)c3)N=C(N)N(C)C2=O)cn1CC(F)(F)F [258 A],10 to 100
12,COC(=O)c1cc([C@@]2(c3ccc(F)c(-c4cncnc4)c3)N=C(N)N(C)C2=O)cn1CC(F)(F)F [258 B],> 1000
13,"CN1C(=O)C(c2cccc(-c3cncnc3)c2)(c2cnn(C)c2)N=C1N (stereo not drawn) [Example 1, 2-Amino-3-methyl-5-(1-methyl-1H-pyrazol-4-yl)-5-(3-pyrimidin-5-ylphenyl)-3,5-dihydro-4-imidazol-4-one]",110 to 1000
14,COc1ncccc1-c1cc(C2(c3ccsc3)N=C(N)N(C)C2=O)ccc1F (stereo not drawn) [Example 38],110 to 1000
15,CN1C(=O)C(c2ccsc2)(c2ccc(F)c(-c3cccnc3F)c2)N=C1N (stereo not drawn) [Example 39],10 to 100
16,CN1C(=O)C(c2ccsc2)(c2ccc(F)c(-c3cccnc3)c2)N=C1N (stereo not drawn) [Example 40],10 to 100
17,"CCn1cc(C2(c3cncnc3)N=C(N)N(C)C2=O)cn1 (stereo not drawn) [Example 42, 2-Amino-5-(1-ethyl-1H-pyrazol-4-yl)-3-methyl-5-(3-pyrimidin-5-yl)-3,5-dihydro-4H-imidazol-4-one]",10 to 100
18,"CCn1cc(C2(c3cccc(-c4cccnc4F)c3)N=C(N)N(C)C2=O)cn1 (stereo not drawn) [Example 43, 2-Amino-5-(1-ethyl-1H-pyrazol-4-yl)-5-[3-(2-fluoro-pyridin-3-yl)-phenyl]-3-methyl-3,5-dihydro-imidazol-4-one]",10 to 100
19,"CCn1cc([C@@]2(c3cccc(-c4cccnc4F)c3)N=C(N)N(C)C2=O)cn1 [Example 44A, (5R)-2-Amino-5-(1-ethyl-1H-pyrazol-4-yl)-5-[3-(2-fluoropyridin-3-yl)phenyl]-3-methyl-3,5-dihydro-4H-imidazol-4-one]",> 1000
20,"CCn1cc([C@]2(c3cccc(-c4cccnc4F)c3)N=C(N)N(C)C2=O)cn1 [Example 44B, (5S)-2-Amino-5-(1-ethyl-1H-pyrazol-4-yl)-5-[3-(2-fluoropyridin-3-yl)phenyl]-3-methyl-3,5-dihydro-4H-imidazol-4-one]",10 to 100
21,"CCn1cc(C2(c3cccc(-c4cncc(F)c4)c3)N=C(N)N(C)C2=O)cn1 (stereo not drawn) [Example 45, 2-Amino-5-(1-ethyl-1H-pyrazol-4-yl)-5-[3-(5-fluoro-pyridin-3-yl)-phenyl]-3-methyl-3,5-dihydro-imidazol-4-one]",10 to 100
22,"CCn1cc(C2(c3cccc(-c4cncc(Cl)c4)c3)N=C(N)N(C)C2=O)cn1 (stereo not drawn) [Example 46, 2-Amino-5-[3-(5-chloropyridin-3-yl)phenyl]-5-(1-ethyl-1H-pyrazol-4-yl)-3-methyl-3,5-dihydro-imidazol-4-one]",10 to 100
23,"CC(C)n1cc(C#Cc2ccc(F)c(Br)c2)cn1 [Example 94, 4-(3-bromo-4-fluorophenylethynyl)-1-isopropyl-1H-pyrazole]",10 to 100
24,"CCCCc1ccc(C2(c3ccccc3)N=C(N)N(C)C2=O)s1 (stereo not drawn) [Example 109, 2-Amino-5-(5-butylthien-2-yl)-3-methyl-5-phenyl-3,5-dihydro-4H-imidazol-4-one]",> 1000
25,"COc1ccc(C2(c3cc(-c4ccc(F)cc4)cs3)N=C(N)N(C)C2=O)cc1C (stereo not drawn) [Example 111, 2-Amino-5-[4-(4-fluorophenyl)thien-2-yl]-5-(4-methoxy-3-methylphenyl)-3-methyl-3,5-dihydro-4H-imidazol-4-one]",110 to 1000
26,"CCC(=O)c1cc(C2(c3cccc(Br)c3)N=C(N)N(C)C2=O)cn1CCF (stereo not drawn) [Example 150, 2-Amino-5-[3-bromophenyl]-5-[1-(2-fluoroethyl)-5-propionyl-1H-pyrrol-3-yl)-3-methyl-3,5-dihydro-4H-imidazol-4-one]",110 to 1000
27,"CCC(=O)c1cc(C2(c3cccc(-c4cc(F)cnc4F)c3)N=C(N)N(C)C2=O)cn1CCF (stereo not drawn) [Example 151, 2-Amino-5-[3-(2,5-difluoropyridin-3-yl)phenyl]-5-[1-(2-fluoro-ethyl)-5-propionyl-1H-pyrrol-3-yl)-3-methyl-3,5-dihydro-4H-imidazol-4-one]",10 to 100
28,CCC(=O)c1cc(C2(c3cccc(-c4cccnc4F)c3)N=C(N)N(C)C2=O)c[nH]1 (stereo not drawn) [Example 154],10 to 100
29,"CCC(=O)c1cc([C@@]2(c3ccc(F)c(-c4cccnc4F)c3)N=C(N)N(C)C2=O)cn1CC [Example 183B, (5R)-2-Amino-5-(1-ethyl-5-propionyl-1H-pyrrol-3-yl)-5-[4-fluoro-3-(2-fluoropyridin-3-yl)phenyl]-3-methyl-3,5-dihydro-4H-imidazol-4-one]",> 1000
30,"COC(=O)c1cc([C@@]2(c3ccc(F)c(-c4cccnc4F)c3)N=C(N)N(C)C2=O)cn1CCF [Example 184B, Methyl 4-{(4R)-2-amino-4-[4-fluoro-3-(2-fluoropyridin-3-yl)phenyl]-1-methyl-5-oxo-4,5-dihydro-1H-imidazol-4-yl}-1-(2-fluoroethyl)-1H-pyrrole-2-carboxylate]",110 to 1000

# Source: US7705030B2, “Amino-5-(5-membered)hetero-arylimidazolone compounds and the use thereof for β-secretase modulation” (Wyeth LLC, priority 2005, dated 2010)
